According to ChEMBL document CHEMBL3886762, “Substituted pyridizinone derivatives as PDE10 inhibitors” (2016):

Molecular target: cAMP and cAMP-inhibited cGMP 3',5'-cyclic phosphodiesterase 10A (Homo sapiens, UniProt Q9Y233)
Test: Fluorescence Polarization Assay: The fluorescence polarization assay for cyclic nucleotide phosphodiesterases was performed using an IMAP® FP kit supplied by Molecular Devices, Sunnyvale, Calif. (product #R8139). IMAP® technology has been applied previously to phosphodiesterase assays (Huang, W., et al., J. Biomol Screen, 2002, 7: 215).

cAMP and cAMP-inhibited cGMP 3',5'-cyclic phosphodiesterase 10A, sequence (Q9Y233 whole entry): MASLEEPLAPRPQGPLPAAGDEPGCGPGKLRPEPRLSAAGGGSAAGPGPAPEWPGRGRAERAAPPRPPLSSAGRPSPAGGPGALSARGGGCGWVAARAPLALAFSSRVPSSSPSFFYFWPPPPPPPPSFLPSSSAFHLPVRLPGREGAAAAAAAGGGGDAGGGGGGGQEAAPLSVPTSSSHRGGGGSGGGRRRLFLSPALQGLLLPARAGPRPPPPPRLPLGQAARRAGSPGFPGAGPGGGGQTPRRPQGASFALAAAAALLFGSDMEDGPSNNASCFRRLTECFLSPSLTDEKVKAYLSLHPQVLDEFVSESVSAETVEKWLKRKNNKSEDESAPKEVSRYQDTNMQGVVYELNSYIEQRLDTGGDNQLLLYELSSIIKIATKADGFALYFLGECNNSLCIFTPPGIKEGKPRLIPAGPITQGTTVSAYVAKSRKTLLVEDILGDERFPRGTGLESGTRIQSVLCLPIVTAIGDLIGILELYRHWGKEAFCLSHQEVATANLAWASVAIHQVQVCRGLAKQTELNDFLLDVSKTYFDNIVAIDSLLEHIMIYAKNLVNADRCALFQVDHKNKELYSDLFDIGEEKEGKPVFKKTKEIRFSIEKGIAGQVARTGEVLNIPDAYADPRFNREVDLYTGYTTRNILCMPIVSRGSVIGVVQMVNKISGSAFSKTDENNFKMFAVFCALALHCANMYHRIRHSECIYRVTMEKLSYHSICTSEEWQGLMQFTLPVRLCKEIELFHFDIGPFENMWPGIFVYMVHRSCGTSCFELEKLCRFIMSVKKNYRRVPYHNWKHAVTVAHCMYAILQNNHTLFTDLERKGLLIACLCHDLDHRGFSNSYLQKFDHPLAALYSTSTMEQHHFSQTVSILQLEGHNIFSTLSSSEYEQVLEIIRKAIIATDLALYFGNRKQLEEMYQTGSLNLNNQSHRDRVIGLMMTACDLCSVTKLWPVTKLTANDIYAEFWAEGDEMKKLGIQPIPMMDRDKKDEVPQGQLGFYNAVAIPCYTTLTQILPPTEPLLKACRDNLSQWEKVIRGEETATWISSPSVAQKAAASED

| Ki [nM] | Compound |
| --- | --- |
| 0.905 | Cc1nnc(CNc2cc(OC[C@H]3C[C@@H]3c3nn(C)c4ccccc34)nn(C)c2=O)s1 |
| 0.1 | Cc1nnc(CNc2cc(OC[C@H]3C[C@@H]3c3ccn(C)n3)nn(C)c2=O)s1 |
| 0.144 | COc1ccc([C@H]2C[C@@H]2COc2cc(NCc3cnn(C(F)F)c3)c(=O)n(C)n2)nc1 |
| 0.001 | Cc1nnc(CNc2cc(OC[C@H]3C[C@@H]3c3ccc4ccccc4n3)nn(C)c2=O)s1 |
| 0.002 | Cc1nnc(CNc2cc(OC[C@H]3C[C@@H]3c3ccc4c(n3)CCC4)nn(C)c2=O)s1 |
| 0.473 | Cc1ccc(CNc2cc(OC[C@H]3C[C@@H]3c3ccn(C)n3)nn(C)c2=O)nc1 |
